The values that follow come from patent US10544143B2, “4-azaindole compounds” (BRISTOL-MYERS SQUIBB COMPANY, priority 2017, dated 2020).

The target of one assay is human TLR7 (Homo sapiens (Human), UniProt Q9NYK1). The experiment in a line: TLR7 inhibition reporter assay (HEK-Blue SEAP). Conditions: HEK-Blue cells overexpressing human TLR7, gardiquimod 7.5 μM stimulation, SEAP reporter. Type of assay: cell-based. A general note: In a reporter assay the amount or activity of a reporter protein is the signal.
Another assay has as its target human TLR8 (Homo sapiens (Human), UniProt Q9NR97). In words: TLR8 inhibition reporter assay (HEK-Blue SEAP).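 Further: SEAP driven by IFN-β minimal promoter carrying NF-κB and AP-1 sites, compounds dosed 0.05 nM to 50 µM for 22 h, inhibition scaled between agonist-plus-DMSO and reference-inhibitor wells.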 The conditions noted are these: read-out: TLR8 IC50; HEK-Blue cells overexpressing human TLR8, R848 15.9 μM stimulation, SEAP reporter.
Another assay concerns the target human TLR9 (Homo sapiens (Human), UniProt Q9NR96). In words: TLR9 inhibition reporter assay (HEK-Blue SEAP).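 Further: SEAP driven by an IFN-β minimal promoter with NF-κB and AP-1 sites, read after 22 h, compounds dosed 0.05 nM–50 µM, inhibition scaled between agonist plus DMSO and reference-inhibitor wells.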 The conditions noted are these: read-out: TLR9 IC50; HEK-Blue cells overexpressing human TLR9, ODN2006 5 nM stimulation, SEAP reporter.

Sequence of human TLR7 (Q9NYK1 27-1049): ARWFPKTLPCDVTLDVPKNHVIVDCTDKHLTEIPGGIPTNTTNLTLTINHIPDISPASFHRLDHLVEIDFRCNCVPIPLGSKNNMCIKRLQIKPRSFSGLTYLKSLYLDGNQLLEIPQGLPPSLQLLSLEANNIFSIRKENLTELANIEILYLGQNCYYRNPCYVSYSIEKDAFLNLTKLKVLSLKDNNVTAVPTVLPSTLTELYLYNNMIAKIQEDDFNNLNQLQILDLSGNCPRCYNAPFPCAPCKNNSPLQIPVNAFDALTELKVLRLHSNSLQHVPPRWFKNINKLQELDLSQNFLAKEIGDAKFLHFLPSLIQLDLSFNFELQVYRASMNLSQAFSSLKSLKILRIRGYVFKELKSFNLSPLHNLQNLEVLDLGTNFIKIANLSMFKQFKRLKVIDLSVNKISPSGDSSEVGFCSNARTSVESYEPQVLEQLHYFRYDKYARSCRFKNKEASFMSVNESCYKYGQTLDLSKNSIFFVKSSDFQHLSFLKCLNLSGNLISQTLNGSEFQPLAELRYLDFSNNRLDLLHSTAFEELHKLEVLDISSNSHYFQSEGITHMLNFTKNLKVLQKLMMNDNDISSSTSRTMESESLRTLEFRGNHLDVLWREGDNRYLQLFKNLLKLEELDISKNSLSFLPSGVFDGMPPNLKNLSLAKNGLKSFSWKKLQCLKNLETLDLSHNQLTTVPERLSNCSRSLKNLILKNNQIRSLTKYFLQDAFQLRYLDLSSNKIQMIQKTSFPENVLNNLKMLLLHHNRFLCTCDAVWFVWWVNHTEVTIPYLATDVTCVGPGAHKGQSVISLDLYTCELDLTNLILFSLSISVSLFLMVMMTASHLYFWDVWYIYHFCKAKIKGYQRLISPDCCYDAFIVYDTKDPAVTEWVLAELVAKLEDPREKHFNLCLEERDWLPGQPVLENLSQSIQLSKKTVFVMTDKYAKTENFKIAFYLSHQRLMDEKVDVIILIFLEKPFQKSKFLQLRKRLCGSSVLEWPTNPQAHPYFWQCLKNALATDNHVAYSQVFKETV
Sequence of human TLR9 (Q9NR96 26-1032): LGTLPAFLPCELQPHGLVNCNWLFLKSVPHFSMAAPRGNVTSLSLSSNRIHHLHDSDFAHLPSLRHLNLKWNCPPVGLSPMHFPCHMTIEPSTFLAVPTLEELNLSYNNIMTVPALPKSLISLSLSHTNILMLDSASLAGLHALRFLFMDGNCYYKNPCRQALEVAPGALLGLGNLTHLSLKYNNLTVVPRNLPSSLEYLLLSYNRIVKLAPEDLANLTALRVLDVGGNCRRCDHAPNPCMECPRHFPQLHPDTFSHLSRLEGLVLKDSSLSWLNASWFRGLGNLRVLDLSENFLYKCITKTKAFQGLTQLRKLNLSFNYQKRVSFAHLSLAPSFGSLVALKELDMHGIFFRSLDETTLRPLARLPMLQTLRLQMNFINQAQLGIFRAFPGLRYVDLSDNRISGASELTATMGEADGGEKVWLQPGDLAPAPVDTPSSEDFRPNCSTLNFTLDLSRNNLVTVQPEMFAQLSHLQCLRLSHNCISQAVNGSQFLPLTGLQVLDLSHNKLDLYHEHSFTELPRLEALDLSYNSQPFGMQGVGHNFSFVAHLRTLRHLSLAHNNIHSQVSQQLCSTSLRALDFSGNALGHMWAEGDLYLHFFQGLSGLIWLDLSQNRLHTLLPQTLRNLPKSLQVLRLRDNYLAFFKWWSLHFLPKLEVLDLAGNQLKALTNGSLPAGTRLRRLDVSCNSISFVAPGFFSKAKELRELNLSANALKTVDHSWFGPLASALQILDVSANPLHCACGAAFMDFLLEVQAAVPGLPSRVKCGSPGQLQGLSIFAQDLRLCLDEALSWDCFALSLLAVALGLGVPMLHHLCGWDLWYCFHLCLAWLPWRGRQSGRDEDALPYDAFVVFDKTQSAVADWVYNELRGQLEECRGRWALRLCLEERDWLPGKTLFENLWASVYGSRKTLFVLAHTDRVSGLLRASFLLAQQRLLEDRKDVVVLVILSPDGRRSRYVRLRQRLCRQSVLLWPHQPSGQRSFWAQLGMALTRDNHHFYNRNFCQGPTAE
Sequence of human TLR8 (Q9NR97 27-1041): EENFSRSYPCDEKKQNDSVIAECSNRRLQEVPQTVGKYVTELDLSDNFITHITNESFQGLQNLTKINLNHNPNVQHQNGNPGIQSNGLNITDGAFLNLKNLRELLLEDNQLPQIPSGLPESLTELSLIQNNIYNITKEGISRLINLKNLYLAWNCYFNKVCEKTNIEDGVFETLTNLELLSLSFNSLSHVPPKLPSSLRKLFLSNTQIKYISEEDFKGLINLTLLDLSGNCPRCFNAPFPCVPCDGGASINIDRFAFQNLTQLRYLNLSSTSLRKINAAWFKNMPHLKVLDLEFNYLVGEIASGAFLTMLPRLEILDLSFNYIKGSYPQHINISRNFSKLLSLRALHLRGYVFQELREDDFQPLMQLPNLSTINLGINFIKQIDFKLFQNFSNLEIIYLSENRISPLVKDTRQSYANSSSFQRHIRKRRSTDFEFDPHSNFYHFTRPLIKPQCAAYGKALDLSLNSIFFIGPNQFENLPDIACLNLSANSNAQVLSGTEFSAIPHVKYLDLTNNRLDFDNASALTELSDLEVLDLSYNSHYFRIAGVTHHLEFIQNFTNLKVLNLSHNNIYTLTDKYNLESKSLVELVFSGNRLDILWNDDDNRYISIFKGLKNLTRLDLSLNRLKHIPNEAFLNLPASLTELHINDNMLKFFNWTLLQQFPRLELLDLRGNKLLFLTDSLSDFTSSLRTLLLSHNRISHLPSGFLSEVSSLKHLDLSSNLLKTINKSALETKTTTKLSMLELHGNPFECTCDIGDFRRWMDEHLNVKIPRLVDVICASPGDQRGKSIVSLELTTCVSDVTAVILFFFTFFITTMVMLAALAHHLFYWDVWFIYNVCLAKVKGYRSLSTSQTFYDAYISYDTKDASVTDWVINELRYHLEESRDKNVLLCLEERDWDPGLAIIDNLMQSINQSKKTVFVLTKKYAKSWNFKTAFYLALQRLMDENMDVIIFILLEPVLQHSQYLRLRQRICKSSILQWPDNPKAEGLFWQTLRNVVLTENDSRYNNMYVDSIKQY
Method for human TLR7: HEK-Blue™-cells (Invivogen) overexpressing human TLR7, TLR8 or TLR9 receptors were used for screening inhibitors of these receptors using an inducible SEAP (secreted embryonic alkaline phosphatase) reporter gene under the control of the IFN-β minimal promoter fused to five NF-κB and AP-1-binding sites. Briefly, cells are seeded into Greiner 384 well plates (15000 cells per well for TLR7, 20,000 for TLR8 and 25,000 for TLR9) and then treated with test compounds in DMSO to yield a final dose response concentration range of 0.05 nM-50 μM. After a 30 minute compound pre-treatment at room temperature, the cells are then stimulated with a TLR7 ligand (gardiquimod at a final concentration of 7.5 μM), TLR8 ligand (R848 at a final concentration of 15.9 μM) or TLR9 ligand (ODN2006 at a final concentration of 5 nM) to activate NF-κB and AP-1 which induce the production of SEAP. After a 22 hour incubation at 37° C., 5% CO2, SEAP levels are determined with the addition of HEK-Blue™ Detection reagent (Invivogen), a cell culture medium that allows for detection of SEAP, according to manufacturer's specifications.

Consider `Cc1c(-c2[nH]c3ccc(N4CC(O)C4)nc3c2C(C)C)cn2ncnc2c1C` [Example 38], for which the half-inhibitory concentration (IC50) (as a rule, the concentration at which inhibition is half-maximal) amounted to 21 nM against human TLR7, 5.2 nM on human TLR8 and 44400 nM on human TLR9.
Taken in the same sequence, the figures for `Cc1c(-c2[nH]c3ccc(N4CC(N5CCC(O)CC5)C4)nc3c2C(C)C)cn2ncnc2c1C` [Example 40] were 24 nM, 1.7 nM and 7960 nM.
The corresponding values for `Cc1c(-c2[nH]c3ccc(N4CC(N5CCS(=O)(=O)CC5)C4)nc3c2C(C)C)cn2ncnc2c1C` [Example 41] are 264 nM, 177 nM and greater than 50000 nM.
The corresponding values for `COC(=O)N1CCN(C2CN(c3ccc4[nH]c(-c5cn6ncnc6c(C)c5C)c(C(C)C)c4n3)C2)CC1` [Example 42] are 178 nM, 57 nM and greater than 50000 nM.
For the molecule `Cc1c(-c2[nH]c3ccc(N4CC5(CCNCC5)C4)nc3c2C(C)C)cn2ncnc2c1C` [Example 43], the IC50 worked out at 2 nM on human TLR7, 7.8 nM at human TLR8 and 560 nM at human TLR9.
Consider `Cc1c(-c2[nH]c3ccc(N4CC5(CCN(CC(=O)N(C)C)CC5)C4)nc3c2C(C)C)cn2ncnc2c1C` [Example 44], for which the IC50 was found to be 12 nM on human TLR7, 15 nM at human TLR8 and 3370 nM at human TLR9.
The corresponding values for `Cc1c(-c2[nH]c3ccc(N4CC5(CCN(CCS(C)(=O)=O)CC5)C4)nc3c2C(C)C)cn2ncnc2c1C` [Example 45] are 22 nM, 20 nM and 7280 nM.
Taken in the same sequence, the figures for `Cc1c(-c2[nH]c3ccc(N4CC5(CCN(C(C)C)CC5)C4)nc3c2C(C)C)cn2ncnc2c1C` [Example 46] were 4.3 nM, 4.9 nM and 1680 nM.
Taken in the same sequence, the figures for `Cc1c(-c2[nH]c3ccc(N4CCC(N(Cc5c[nH]nn5)Cc5c[nH]nn5)CC4)nc3c2C(C)C)cn2ncnc2c1C` [Example 48] were 7.4 nM, 9.3 nM and 31300 nM.
In the case of `Cc1c(-c2[nH]c3ccc(N4CCC(NC5CCOCC5)CC4)nc3c2C(C)C)cn2ncnc2c1C` [Example 49], the IC50 on human TLR7 came out at 1 nM; on human TLR8, 0.62 nM; on human TLR9 it was 2670 nM.
In the case of `Cc1c(-c2[nH]c3ccc(N4CCC(N)CC4)nc3c2C(C)C)cn2ncnc2c1C` [Example 50], the half-inhibitory concentration (IC50) was 0.49 nM against human TLR7, 0.39 nM on human TLR8 and 2840 nM on human TLR9.
Taken in the same sequence, the figures for `CC(C)c1c(-c2cn(C)c3ncccc23)[nH]c2ccc(N3CCC(N(CC#N)CC#N)CC3)nc12` [Example 51] were 5.1 nM, 7 nM and 16300 nM.
Taken in the same sequence, the figures for `CC(C)c1c(-c2cn(C)c3ncccc23)[nH]c2ccc(N3CCC(NCCS(C)(=O)=O)CC3)nc12` [Example 53] were 0.62 nM, 0.23 nM and 1990 nM.
Taken in the same sequence, the figures for `CC(C)c1c(-c2cn(C)c3ncccc23)[nH]c2ccc(N3CCC(N(CC(=O)N(C)C)CC(=O)N(C)C)CC3)nc12` [Example 54] were 2.9 nM, 2.8 nM and 10400 nM.
With `Cc1c(-c2[nH]c3ccc(N4CCC(N(C)C5CCOCC5)CC4)nc3c2C(C)C)cn2ncnc2c1C` [Example 55], the IC50 at human TLR7 turned out to be 2.1 nM; on human TLR8, 0.39 nM; on human TLR9, 3340 nM.
With `Cc1c(-c2[nH]c3ccc(N4CCC(NCc5csnn5)CC4)nc3c2C(C)C)cn2ncnc2c1C` [Example 56], the IC50 was 2 nM against human TLR7, 1.1 nM at human TLR8 and 6340 nM at human TLR9.
Turning to `Cc1c(-c2[nH]c3ccc(N4CCC(NC5CCC5)CC4)nc3c2C(C)C)cn2ncnc2c1C` [Example 57], the results for the concentration for half-maximal inhibition (IC50) on human TLR7, on human TLR8 and on human TLR9 were 7.4 nM, 1.3 nM and 5070 nM, respectively.
The corresponding values for `Cc1c(-c2[nH]c3ccc(N4CCC(N(C)CC5CC5)CC4)nc3c2C(C)C)cn2ncnc2c1C` [Example 58] are 1.3 nM, 0.72 nM and 1970 nM.
Taken in the same sequence, the figures for `Cc1c(-c2[nH]c3ccc(N4CCC(N(C)C5CCC5)CC4)nc3c2C(C)C)cn2ncnc2c1C` [Example 59] were 1.3 nM, 1.1 nM and 2380 nM.
Regarding `Cc1c(-c2[nH]c3ccc(N4CCC(N(C)Cc5ncccn5)CC4)nc3c2C(C)C)cn2ncnc2c1C` [Example 60], the 50% inhibitory concentration (IC50) at human TLR7 was 5.6 nM; on human TLR8, 5.9 nM; on human TLR9, 20200 nM.
Taken in the same sequence, the figures for `COc1ncnc(OC)c1CN(C)C1CCN(c2ccc3[nH]c(-c4cn5ncnc5c(C)c4C)c(C(C)C)c3n2)CC1` [Example 61] were 4.4 nM, 1.8 nM and 2410 nM.
Taken in the same sequence, the figures for `Cc1c(-c2[nH]c3ccc(N4CCC(N(C)Cc5ccnn5C)CC4)nc3c2C(C)C)cn2ncnc2c1C` [Example 62] were 3.8 nM, 1.5 nM and 11500 nM.
The corresponding values for `Cc1c(-c2[nH]c3ccc(N4CCC(N(C)Cc5ncnn5C)CC4)nc3c2C(C)C)cn2ncnc2c1C` [Example 63] are 7.4 nM, 4 nM and 42400 nM.
For `Cc1ncc(CN(C)C2CCN(c3ccc4[nH]c(-c5cn6ncnc6c(C)c5C)c(C(C)C)c4n3)CC2)cn1` [Example 64], the results for the IC50 at human TLR7, on human TLR8 and on human TLR9 were 3.8 nM, 1.6 nM and 5080 nM, respectively.
The corresponding values for `Cc1c(-c2[nH]c3ccc(N4CCC(N(C)C5COC5)CC4)nc3c2C(C)C)cn2ncnc2c1C` [Example 65] are 1.9 nM, 1.3 nM and 25100 nM.
Taken in the same sequence, the figures for `CCN(C)C1CCN(c2ccc3[nH]c(-c4cn5ncnc5c(C)c4C)c(C(C)C)c3n2)CC1` [Example 66] were 1.4 nM, 0.98 nM and 3870 nM.
The corresponding values for `COc1ncc(CN(C)C2CCN(c3ccc4[nH]c(-c5cn6ncnc6c(C)c5C)c(C(C)C)c4n3)CC2)cn1` [Example 67] are 0.98 nM, 0.42 nM and 963 nM.
For the molecule `Cc1c(-c2[nH]c3ccc(N4CCC(N(C)Cc5cn(C)nn5)CC4)nc3c2C(C)C)cn2ncnc2c1C` [Example 68], the values for the IC50 against human TLR7, on human TLR8 and on human TLR9 were 1.4 nM, 0.79 nM and 6300 nM, respectively.
Taken in the same sequence, the figures for `COc1ncnc(OC)c1CNC1CCN(c2ccc3[nH]c(-c4cn5ncnc5c(C)c4C)c(C(C)C)c3n2)CC1` [Example 69] were 1310 nM, 1310 nM and 25800 nM.
Taken in the same sequence, the figures for `CCN(CC)C1CCN(c2ccc3[nH]c(-c4cn5ncnc5c(C)c4C)c(C(C)C)c3n2)CC1` [Example 70] were 2.3 nM, 1.2 nM and 2970 nM.
On to `COc1ncnc(OC)c1CN(Cc1c(OC)ncnc1OC)C1CCN(c2ccc3[nH]c(-c4cn5ncnc5c(C)c4C)c(C(C)C)c3n2)CC1` [Example 71], for which the values for the concentration for half-maximal inhibition (IC50) at human TLR7, on human TLR8 and at human TLR9 were 99 nM, 31 nM and 3900 nM, respectively.
The corresponding values for `COc1ncc(CNC2CCN(c3ccc4[nH]c(-c5cn6ncnc6c(C)c5C)c(C(C)C)c4n3)CC2)cn1` [Example 72] are 2.9 nM, 0.9 nM and 3420 nM.
Taken in the same sequence, the figures for `Cc1c(-c2[nH]c3ccc(N4CCC(N(Cc5cn(C)nn5)Cc5cn(C)nn5)CC4)nc3c2C(C)C)cn2ncnc2c1C` [Example 73] were 29 nM, 5.7 nM and 24900 nM.
Take `Cc1nccc(CN(Cc2ccnc(C)n2)C2CCN(c3ccc4[nH]c(-c5cn6ncnc6c(C)c5C)c(C(C)C)c4n3)CC2)n1` [Example 74]: the IC50 at human TLR7 was 2470 nM; on human TLR8, 2560 nM; at human TLR9, greater than 50000 nM.
In the case of `COc1ncc(CN(Cc2cnc(OC)nc2)C2CCN(c3ccc4[nH]c(-c5cn6ncnc6c(C)c5C)c(C(C)C)c4n3)CC2)cn1` [Example 75], the results for the IC50 against human TLR7, at human TLR8 and at human TLR9 were 18 nM, 9.8 nM and greater than 50000 nM, respectively.
For `Cc1c(-c2[nH]c3ccc(N4CCC(N(Cc5ncnn5C)Cc5ncnn5C)CC4)nc3c2C(C)C)cn2ncnc2c1C` [Example 76], the IC50 on human TLR7 is 34 nM; on human TLR8 it was 15 nM; at human TLR9, greater than 50000 nM.
Take `Cc1c(-c2[nH]c3ccc(N4CCC(N(C)Cc5csnn5)CC4)nc3c2C(C)C)cn2ncnc2c1C` [Example 77]: the IC50 is 4.8 nM at human TLR7, 2 nM on human TLR8 and 11600 nM at human TLR9.
As for `Cc1c(-c2[nH]c3ccc(N4CCC(N(C)Cc5ncccn5)CC4)nc3c2C(C)C)cn2ncnc2c1C` [Example 78], the IC50 at human TLR7 came out at 3.7 nM; on human TLR8, 10 nM; at human TLR9 it was 3170 nM.
In the case of `CC(C)c1c(-c2cc(CO)c3ncnn3c2)[nH]c2ccc(N3CCC(N)CC3)nc12` [Example 79], the IC50 at human TLR7 amounted to 373 nM; on human TLR8, 355 nM; on human TLR9 it was 9720 nM.
The corresponding values for `CC(C)c1c(-c2cc(CO)c3ncnn3c2)[nH]c2ccc(N3CCC(NC4CCOCC4)CC3)nc12` [Example 80] are 1.3 nM, 1.6 nM and 4560 nM.
The corresponding values for `CC(C)c1c(-c2cc(CO)c3ncnn3c2)[nH]c2ccc(N3CCC(NC4COC4)CC3)nc12` [Example 81] are 1.3 nM, 0.95 nM and 20100 nM.
Taken in the same sequence, the figures for `CC(C)c1c(-c2cc(CO)c3ncnn3c2)[nH]c2ccc(N3CCC(NCC4(C)COC4)CC3)nc12` [Example 82] were 0.77 nM, 0.41 nM and 6380 nM.
